Measurements taken from ChEMBL document CHEMBL4265914, “Discovery of selective urokinase plasminogen activator (uPA) inhibitors as a potential treatment for multiple sclerosis” (Bioorg Med Chem Lett, 2018).
The source made the active and inactive calls. The rule behind the calls is not given here.

Assays:
[1] = Oral bioavailability in rat at 2 mg/kg; format: ADME, organism-based; conditions: in vivo
[2] = molecular target: Plasminogen (Homo sapiens, UniProt P00747); experiment: Inhibition of human plasmin
[3] = Half life in rat at 2 mg/kg, po; format: ADME, organism-based; conditions: in vivo
[4] = tested on: Rattus norvegicus; experiment: Total AUC in rat at 2 mg/kg, po; format: ADME, organism-based; design: dose 2 mg/kg, route oral, time AUCmax; conditions: in vivo
[5] = molecular target: Tissue-type plasminogen activator (Homo sapiens, UniProt P00750); experiment: Inhibition of human tPA
[6] = Cmax in rat at 2 mg/kg, po; format: ADME, organism-based; design: dose 2 mg/kg, route oral; conditions: in vivo
[7] = molecular target: Urokinase-type plasminogen activator (Homo sapiens, UniProt P00749); experiment: Inhibition of human uPA
[8] = Clearance in rat at 2 mg/kg, po; format: ADME, organism-based; conditions: in vivo
[9] = tested on: Rattus norvegicus; experiment: Volume of distribution in rat at 2 mg/kg, po; format: ADME, organism-based; conditions: in vivo
[10] = tested on: Mus musculus; experiment: Prevention of multiple sclerosis development in chronic SJL mouse EAE model at 50 mg/kg, po bid; format: functional, organism-based
[11] = molecular target: Tissue-type plasminogen activator (Mus musculus, UniProt P11214); experiment: Inhibition of mouse tPA
[12] = molecular target: Plasminogen (Mus musculus, UniProt P20918); experiment: Inhibition of mouse plasmin
[13] = tested on: Mus musculus; experiment: Prevention of multiple sclerosis development in chronic SJL mouse EAE model at 10 to 25 mg/kg, po bid; format: functional, organism-based
[14] = molecular target: Urokinase-type plasminogen activator (Mus musculus, UniProt P06869); experiment: Inhibition of mouse uPA
[15] = tested on: Mus musculus; experiment: Prevention of multiple sclerosis development in acute SJL mouse EAE model at 25 to 50 mg/kg, po bid; format: functional, organism-based

Chain of Plasminogen (Homo sapiens, UniProt P00747) (P00747 97-580 limits assumed): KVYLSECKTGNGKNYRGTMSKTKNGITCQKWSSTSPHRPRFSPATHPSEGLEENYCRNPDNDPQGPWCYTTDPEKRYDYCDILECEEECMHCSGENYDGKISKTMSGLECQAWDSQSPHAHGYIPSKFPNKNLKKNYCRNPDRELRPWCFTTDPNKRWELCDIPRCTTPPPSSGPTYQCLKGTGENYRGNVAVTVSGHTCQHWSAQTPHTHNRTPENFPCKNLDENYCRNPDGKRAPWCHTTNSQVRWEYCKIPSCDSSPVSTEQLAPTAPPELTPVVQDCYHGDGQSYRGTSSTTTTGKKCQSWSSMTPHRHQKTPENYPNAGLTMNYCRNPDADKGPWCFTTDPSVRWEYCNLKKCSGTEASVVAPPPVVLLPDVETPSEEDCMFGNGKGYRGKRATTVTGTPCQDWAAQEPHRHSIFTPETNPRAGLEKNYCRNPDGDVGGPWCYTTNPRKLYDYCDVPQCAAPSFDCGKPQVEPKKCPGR
Chain of Plasminogen (Homo sapiens, UniProt P00747) (P00747 581-810 limits assumed): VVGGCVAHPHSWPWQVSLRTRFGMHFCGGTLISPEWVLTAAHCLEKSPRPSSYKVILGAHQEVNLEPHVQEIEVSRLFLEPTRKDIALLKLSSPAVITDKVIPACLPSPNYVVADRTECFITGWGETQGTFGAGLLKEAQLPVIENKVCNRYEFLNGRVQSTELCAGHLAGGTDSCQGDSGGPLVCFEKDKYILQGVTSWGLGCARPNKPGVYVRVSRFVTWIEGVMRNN
Chain of Tissue-type plasminogen activator (Homo sapiens, UniProt P00750) (P00750 whole entry): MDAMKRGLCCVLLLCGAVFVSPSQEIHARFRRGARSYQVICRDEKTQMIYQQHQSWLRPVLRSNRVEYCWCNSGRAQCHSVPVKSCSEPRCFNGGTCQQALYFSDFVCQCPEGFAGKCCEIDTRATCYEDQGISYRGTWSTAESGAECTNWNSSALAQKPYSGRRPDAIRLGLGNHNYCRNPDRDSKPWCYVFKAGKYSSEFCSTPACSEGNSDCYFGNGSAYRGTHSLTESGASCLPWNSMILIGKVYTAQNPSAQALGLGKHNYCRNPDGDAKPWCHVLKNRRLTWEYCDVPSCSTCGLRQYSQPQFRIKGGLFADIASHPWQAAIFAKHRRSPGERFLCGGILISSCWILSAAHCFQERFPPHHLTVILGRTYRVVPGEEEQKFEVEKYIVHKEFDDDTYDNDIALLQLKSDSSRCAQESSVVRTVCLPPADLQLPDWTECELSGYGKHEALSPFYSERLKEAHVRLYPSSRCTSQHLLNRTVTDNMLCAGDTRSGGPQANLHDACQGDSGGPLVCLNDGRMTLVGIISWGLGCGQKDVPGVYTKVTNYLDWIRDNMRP
Chain of Plasminogen (Mus musculus, UniProt P20918) (P20918 98-581 limits assumed): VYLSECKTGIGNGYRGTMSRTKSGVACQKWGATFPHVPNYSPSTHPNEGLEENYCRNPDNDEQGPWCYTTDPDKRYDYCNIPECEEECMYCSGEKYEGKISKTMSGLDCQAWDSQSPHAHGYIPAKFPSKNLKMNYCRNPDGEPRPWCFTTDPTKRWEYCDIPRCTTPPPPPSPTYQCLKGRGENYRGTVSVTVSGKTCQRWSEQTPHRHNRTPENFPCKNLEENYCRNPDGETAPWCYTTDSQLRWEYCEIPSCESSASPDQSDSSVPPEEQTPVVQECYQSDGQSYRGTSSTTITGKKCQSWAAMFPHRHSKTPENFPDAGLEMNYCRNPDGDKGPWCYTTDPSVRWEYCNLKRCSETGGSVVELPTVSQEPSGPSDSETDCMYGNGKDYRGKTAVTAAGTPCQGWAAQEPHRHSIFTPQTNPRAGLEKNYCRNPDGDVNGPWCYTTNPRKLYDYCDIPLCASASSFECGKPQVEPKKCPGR
Chain of Plasminogen (Mus musculus, UniProt P20918) (P20918 582-812 limits assumed): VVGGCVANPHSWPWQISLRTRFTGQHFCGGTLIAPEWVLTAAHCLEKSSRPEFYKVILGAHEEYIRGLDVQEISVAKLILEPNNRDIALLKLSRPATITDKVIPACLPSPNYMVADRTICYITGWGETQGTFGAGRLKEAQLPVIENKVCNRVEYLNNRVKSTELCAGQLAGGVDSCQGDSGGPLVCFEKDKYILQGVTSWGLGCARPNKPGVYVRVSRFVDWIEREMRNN
Chain of Urokinase-type plasminogen activator (Mus musculus, UniProt P06869) (P06869 21-178 limits assumed): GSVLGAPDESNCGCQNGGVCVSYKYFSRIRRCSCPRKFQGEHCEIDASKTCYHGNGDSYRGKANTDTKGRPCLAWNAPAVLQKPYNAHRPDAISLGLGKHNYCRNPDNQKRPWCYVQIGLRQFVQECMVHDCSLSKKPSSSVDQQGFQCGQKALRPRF
Chain of Urokinase-type plasminogen activator (Mus musculus, UniProt P06869) (P06869 180-433 limits assumed): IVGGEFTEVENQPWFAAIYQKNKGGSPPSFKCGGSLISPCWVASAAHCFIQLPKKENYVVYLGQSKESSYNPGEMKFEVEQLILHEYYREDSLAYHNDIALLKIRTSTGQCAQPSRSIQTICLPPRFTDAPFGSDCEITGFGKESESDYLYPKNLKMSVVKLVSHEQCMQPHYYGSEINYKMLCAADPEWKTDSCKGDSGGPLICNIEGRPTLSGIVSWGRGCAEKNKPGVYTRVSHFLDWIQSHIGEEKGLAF
Chain of Tissue-type plasminogen activator (Mus musculus, UniProt P11214) (P11214 whole entry): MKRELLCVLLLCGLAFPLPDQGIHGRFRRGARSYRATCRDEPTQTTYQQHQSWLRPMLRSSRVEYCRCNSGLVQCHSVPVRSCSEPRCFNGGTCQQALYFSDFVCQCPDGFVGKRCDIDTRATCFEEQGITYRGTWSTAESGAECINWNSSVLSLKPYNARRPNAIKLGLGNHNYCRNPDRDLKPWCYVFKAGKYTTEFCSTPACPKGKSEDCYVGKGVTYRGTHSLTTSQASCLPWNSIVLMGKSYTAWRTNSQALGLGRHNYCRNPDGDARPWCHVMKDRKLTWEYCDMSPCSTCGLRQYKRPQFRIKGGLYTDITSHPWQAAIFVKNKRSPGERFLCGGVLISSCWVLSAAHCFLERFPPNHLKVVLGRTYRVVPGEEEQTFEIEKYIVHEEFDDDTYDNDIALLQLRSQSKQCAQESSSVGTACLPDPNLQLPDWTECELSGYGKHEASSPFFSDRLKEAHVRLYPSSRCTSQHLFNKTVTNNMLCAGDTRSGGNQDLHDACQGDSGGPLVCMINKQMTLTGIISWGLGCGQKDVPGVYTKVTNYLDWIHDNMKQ

CC[C@@H](Oc1nc(Oc2cccc(-c3cccc(CN)c3)c2)c(F)cc1F)C(=O)O
bioavailability [1]: 55% | IC50 [2]: 1.85 µM | half-life [3]: 2.8 h | AUC [4]: 2200 ng·h/mL | IC50 [5]: 1.6 µM | Cmax [6]: 640 ng/mL | IC50 [7]: 0.237 µM | CL/F [8]: 8.4 mL/min/kg | Vd [9]: 0.76 L/kg

CC[C@@H](Oc1nc(Oc2cc(C)cc(-c3cccc(CN)c3)c2)c(F)cc1F)C(=O)O
bioavailability [1]: 30% | Activity [10]: Active | IC50 [2]: 1.33 µM | half-life [3]: 2.2 h | IC50 [11]: 0.91 µM | AUC [4]: 13200 ng·h/mL | IC50 [5]: 1.58 µM | IC50 [12]: 1.6 µM | IC50 [7]: 0.079 µM | Activity [13]: inactive | CL/F [8]: 4 mL/min/kg | IC50 [14]: 0.41 µM | Vd [9]: 0.6 L/kg | Activity [15]: Active

COc1cc(Oc2nc(O[C@@H](C(=O)O)C(C)(C)C)c(F)cc2F)cc(-c2cccc(CN)c2)c1
IC50 [2]: 3.32 µM | IC50 [5]: 1.85 µM | IC50 [7]: 0.023 µM

Cc1cc(Oc2nc(O[C@@H](C(=O)O)C(C)(C)C)c(F)cc2F)cc(-c2cccc(CN)c2)c1
IC50 [2]: 1.9 µM | IC50 [5]: 0.47 µM | IC50 [7]: 0.051 µM

CC[C@H](Oc1nc(Oc2cccc(-c3cccc(CN)c3)c2)c(F)cc1F)C(=O)O
IC50 [2]: > 30 µM | IC50 [5]: > 30 µM | IC50 [7]: 7.26 µM

C[C@@H](Oc1nc(Oc2cccc(-c3cccc(CN)c3)c2)c(F)cc1F)C(=O)O
IC50 [2]: 5.1 µM | IC50 [7]: 0.36 µM

CC(C)(C)[C@@H](Oc1nc(Oc2cccc(-c3cccc(CN)c3)c2)c(F)cc1F)C(=O)O
IC50 [2]: 5.45 µM | IC50 [5]: 1.45 µM | IC50 [7]: 0.084 µM

CC(C)(C)[C@@H](Oc1nc(Oc2cc(C#N)cc(-c3cccc(CN)c3)c2)c(F)cc1F)C(=O)O
IC50 [2]: 5.4 µM | IC50 [5]: 5.7 µM | IC50 [7]: 0.034 µM

NCc1cccc(-c2cccc(Oc3nc(OCC(=O)O)c(F)cc3F)c2)c1
IC50 [7]: 3.28 µM
